Holding throughout (format): cell-based
Test [1] has as its system A549 cells. As to the kind of experiment: A549 Cytotoxicity Assay (Cell Titer Glo viability). The procedure:
(§1) A549 Cytotoxicity Assay Protocol. Day 0: A549 cells (ATCC, A549 CCL-185) are grown to 95% confluence in RPMI, 10% FBS/Pen/Strep/L-Glutamine. Day 1: Plate cells (1000 per well) in 40 μl culturing media using Corning 384-well plates (3570), incubate in standard TC conditions (5% CO2, 95% humidity, 37° C.) for 24 h. Day 2: Dilute each concentration of a half-log serial dilution of compound (1 mM-100 nM) 1:200 in culturing media and add […] (50 μl total volume) of that dilution to designated wells (8 replicates per concentration). The final dilution will be 1000×([…]). Day 4: Remove plate from incubator to cool for 20 minutes to room temperature. Add 40 μl of a 25% Promega Cell Titer Glo solution (diluted 1:3 with room temperature PBS) with Thermo combi or multichannel and incubate for 10 min. Read on Perkin-Elmer EnVision with US LUM settings for 0.1 second per well.
A549 Assay Protocol. Day 0: A549 cells (ATCC) are grown in a Triple flask (NUNC) to ˜95% confluence (TrypLE Phenol Red free) and resuspended for dispensing at 25,000 cells/mL of DMEM, 10% FBS/Pen/Strep/L-Glutamine (using the TAP Compact SelecT automated cell culture system). Day 1: Plate cells at 1000 per well in 40 uL media (DMEM/10% FBS/Pen/Strep/L-Glutamine) using Corning 8867BC 384 well plates; incubate in standard TC conditions (5% CO2; 95% humidity, 37° C.) for 24 hours (Compact SelecT). Day 2: Add 100 nL compound per well at dose into 40 uL assay volume using a pin tool (CyBi Well). Pin 100 nL cytotoxic compounds, mitoxantrone (CID 4212) to positive control wells to a final concentration of 10 μM (100 nL 4 mM DMSO stock). Incubate for […] at 37° C. in Liconic incubator, 95% humidity 5% CO2. Day 4: Remove plate from incubator, cool for 15 minutes to room temperature; add 20 μL 50% Promega CellTiterGlo (diluted 1:1 with PBS, pH 7.4) with Thermo Combi. Incubate at room temperature for 5 minutes. Read plates on Perkin-Elmer EnVision with standard luminescence settings for 0.1 sec per well.
(§2) Compounds as shown were tested against various cells lines in vitro according to the methods described herein. Cells are plated in 384-well format in a total volume of 40 μl. Indicated compound concentrations were added 24 hrs after plating the cells. After 48 hrs cell viability was determined using Cell Titer Glo® Luminescent Cell Viability Assay.
(§3) Known PDE3 inhibitors as shown below were tested against various cells lines in vitro according to the methods described herein. Cells are plated in 384-well format in a total volume of 40 μl. Indicated compound concentrations were added 24 hrs after plating the cells. After 48 hrs cell viability was determined using Cell Titer Glo® Luminescent Cell Viability Assay.
(ATP-based viability assays read luminescence as a measure of living cells.)

Test [2] concerns H1563. The test can be described thus: H1563 cell line viability (Cell Titer Glo). As to conditions: Homo sapiens, NCI-H1563; n = 2; read-out: Potency (EC50) H1563. As for the experimental part:
as §2

In test [3] the test system is HeLa cells. The test can be described thus: HeLa Cytotoxicity Assay (Cell Titer Glo viability). As for the experimental part:
HeLa Cytotoxicity Assay Protocol: Day 0: HeLa cells (ATCC, HeLa CCL-2) are grown to 95% confluence in DMEM, 10% FBS/Pen/Strep/L-Glutamine. Day 1: Plate cells (1000 per well) in 40 μl culturing media using Corning 384-well plates (3570), incubate in standard TC conditions (5% CO2, 95% humidity, 37 degrees C.) for 24 hours. Day 2: Dilute each concentration of a half-log serial dilution of compound (1 mM-100 nM) 1:200 in culturing media and add 10 μl (50 μl total volume) of that dilution to designated wells (8 replicates per concentration). The final dilution will be 1000×(1 μM-100 pM). Day 4: Remove plate from incubator to cool for 20 minutes to room temperature. Add 40 μl of a 25% Promega Cell Titer Glo solution (diluted 1:3 with room temperature PBS) with Thermo combi or multichannel and incubate for 10 minutes. Read on Perkin-Elmer EnVision with US LUM settings for 0.1 second per well.
as §2, §3

For test [4], the system named is H2122 cells. As to the kind of experiment: H2122 Assay (Cell Titer Glo viability). As to conditions: Homo sapiens. As for the experimental part:
Selective toxicity in cell line panel. H2122 Assay Protocol Day 0: H2122 cells (ATCC, H2122 CCL-5985) are grown to 95% confluence in RPMI, 10% FBS/Pen/Strep/L-Glutamine. Day 1: Plate cells (750 per well) in 40 μl culturing media using Corning 384-well plates (3570), incubate in standard TC conditions (5% CO2, 95% humidity, 37 degrees C.) for 24 h. Day 2: Dilute each concentration of a half-log serial dilution of compound (1 mM-100 nM) 1:200 in culturing media and add 10 μl (50 μl total volume) of that dilution to designated wells (8 replicates per concentration). The final dilution will be 1000×([…]). Day 4: Remove plate from incubator to cool for 20 minutes to room temperature. Add 40 μl of a 25% Promega Cell Titer Glo solution (diluted 1:3 with room temperature PBS) with Thermo combi or multichannel and incubate for 10 minutes. Read on Perkin-Elmer EnVision with US LUM settings for 0.1 second per well.
as §2

In test [5] the test system is COLO741 cells. The test can be described thus: COLO741 Assay (Cell Titer Glo viability). As to conditions: Homo sapiens, COLO-741, Example 18; Mean ± SD (n = 3); read-out: Potency (EC50 nM) COLO741. The procedure: as §1, with “C0L0741” for “A549 Cytotoxicity”, “C0L0741” for “A549”, “(ECACC, C0L0741 93052621)” for “(ATCC, A549 CCL-185)”, “(1500” for “(1000”, “minutes.” for “min.”
as §2

The mark [6] stands for this setting: Homo sapiens, A549, n = 2, read-out: Potency (EC50) A549.
The mark [7] stands for this setting: Homo sapiens, HeLa, n = 2, read-out: Potency (EC50) HeLa.
Where [8] appears, read: NCI-H2122, n = 2, read-out: Potency (EC50) H2122.
Setting [9] is: Homo sapiens, A549, Mean ± SD (n = 3), read-out: Potency (EC50 nM) A549.
Setting [10] is: Homo sapiens, HeLa, Mean ± SD (n = 3), read-out: Potency (EC50 nM) HeLa.
Where [11] appears, read: Mean ± SD (n = 3), read-out: Potency (EC50 nM) HeLa.

The structures appear in SMILES notation. Like-named read-outs stand apart in the source and are kept apart here.

In the case of `O=C1CCC(c2ccccc2)=NN1`, the EC50 in test [1] (setting [6]) and in test [2] was greater than 10000 nM in each case.
Turning to `CC1CC(=O)NN=C1c1ccc(N)cc1` (stereo not shown), the EC50 in test [1] (setting [6]) and in test [2] was greater than 10000 nM each time.
For `C[C@@H]1CC(=O)NN=C1c1ccc(N)cc1`, the EC50 in test [1] (setting [6]) and in test [2] was greater than 10000 nM in each case.
Take `CC1CC(=O)NN=C1c1ccc(N2CCCCC2)c([N+](=O)[O-])c1` (stereo not shown): the EC50 in test [1] (setting [6]) was greater than 10000 nM; in test [3] (setting [7]), 1 nM; in test [4] (setting [8]) it was 1 nM; in test [2] it was 3 nM.
In the case of `CC1CC(=O)NN=C1c1ccc(N2CCOCC2)c([N+](=O)[O-])c1` (stereo not shown), the EC50 in test [1] (setting [6]) is greater than 10000 nM; in test [2], 3 nM.
The corresponding values for `COc1ccc(CC(=O)N2CCN(c3ccc(C4=NNC(=O)CC4C)cc3[N+](=O)[O-])CC2)cc1` (stereo not shown) are greater than 10000 nM and greater than 10000 nM.
The corresponding values for `CC1CC(=O)NN=C1c1ccc(N)c([N+](=O)[O-])c1` (stereo not shown) are greater than 10000 nM and greater than 10000 nM.
For the compound `CC1CC(=O)NN=C1c1ccc(N(C)C)c([N+](=O)[O-])c1` (stereo not shown), the EC50 in test [1] (setting [6]) is greater than 10000 nM; in test [2], 40 nM.
In the case of `CC1CC(=O)NN=C1c1ccc(NCCO)c([N+](=O)[O-])c1` (stereo not shown), the EC50 in test [1] (setting [6]) was greater than 10000 nM; in test [3] (setting [7]), 4 nM; in test [4] (setting [8]) it was 11 nM; in test [2] it was 40 nM.
As to `CC1CC(=O)NN=C1c1ccc(N)c(N)c1` (stereo not shown), the EC50 in test [1] (setting [6]) and in test [2] was greater than 10000 nM throughout.
With `CC1CC(=O)NN=C1c1ccc(/N=C\c2ccccc2[N+](=O)[O-])cc1` (stereo not shown), the half-maximal effective concentration (EC50) in test [1] (setting [6]) and in test [2] was greater than 10000 nM throughout.
Regarding `O=C(O)Cc1n[nH]c(=O)c2ccccc12`, the concentration for a half-maximal effect (EC50) in test [1] (setting [6]) and in test [2] was greater than 10000 nM in each case.
Regarding `CCN(CC)c1ccc(C(=O)Nc2cccc(OC)c2)cc1[N+](=O)[O-]`, the EC50 in test [1] (setting [6]) and in test [2] was greater than 10000 nM in each case.
As for `CCN(CC)c1ccc(C#N)cc1[N+](=O)[O-]`, the EC50 in test [1] (setting [6]) and in test [2] was greater than 10000 nM each time.
`CCN(CC)c1ccc(C(=O)O)cc1[N+](=O)[O-]`: the EC50 in test [1] (setting [6]) and in test [2] was greater than 10000 nM throughout.
In the case of `CCN(CC)c1ccc(C2=NNC(=O)CC2C)cc1[N+](=O)[O-]` (stereo not shown) [drawing 137], the EC50 is greater than 10000 nM in test [1] (Homo sapiens, A549, 48 hrs, Cell Titer Glo, read-out: EC50 A549); 5.5 to 8.7 nM in test [3] (Homo sapiens, HeLa, 48 h, Cell Titer Glo, read-out: EC50 HeLa); 10.3 to 15.6 nM in test [4] (NCI-H2122, 48 h, 48 hrs, Cell Titer Glo, read-out: EC50 H2122).
For `CCN1N=C(c2ccc(N(CC)CC)cc2)[C@H](C)CC1=O` [drawing 160], the results for the 50% effective concentration (EC50) in test [1] (setting [9]) and in test [3] (setting [10]) were greater than 10000 nM and greater than 1000 nM, respectively.
The corresponding values for `C[C@@H]1CC(=O)NN=C1c1ccc(N2CCOCC2)cc1` [drawing 164] are greater than 10000 nM and 13 ± 2 nM.
The corresponding values for `C[C@@H]1CC(=O)NN=C1c1ccc(N2CCOCC2)c(F)c1` [drawing 166] are greater than 10000 nM and 1.6 ± 0.2 nM.
The corresponding values for `CC(=O)Nc1ccc(C2=NNC(=O)CC2C)cc1` (stereo not shown) [drawing 173] are greater than 10000 nM and greater than 1000 nM.
Regarding `CC(=O)Nc1ccc(C2=NNC(=O)C[C@H]2C)cc1` [drawing 174], the EC50 is greater than 10000 nM in test [1] (setting [9]) and greater than 1000 nM in test [3] (setting [10]).
On to `CC(=O)Nc1ccc(C2=NNC(=O)C[C@H]2C)cc1Br` [drawing 175], for which the figures for the concentration for a half-maximal effect (EC50) in test [1] (setting [9]) and in test [3] (setting [10]) were greater than 10000 nM and 21 ± 1 nM, respectively.
For the compound `CC(=O)Nc1ccc(C2=NNC(=O)C[C@H]2C)cc1[N+](=O)[O-]` [drawing 176], the EC50 in test [1] (setting [9]) was greater than 10000 nM; in test [3] (setting [10]) it was 4.9 ± 1.1 nM.
Turning to `C[C@@H]1CC(=O)NN=C1c1ccc(N2CCCC2=O)cc1` [drawing 182], the EC50 was greater than 10000 nM in test [1] (setting [9]) and 140 ± 50 nM in test [3] (setting [11]).
On to `C[C@@H]1CC(=O)NN=C1c1ccc(N2CCCC2=O)cc1` [drawing 183], for which the EC50 in test [1] (Mean ± SD (n = 3), read-out: Potency (EC50 nM) A549) was greater than 10000 nM; in test [3] (setting [11]), greater than 1000 nM.
In the case of `C[C@@H]1CC(=O)NN=C1c1ccc(F)c(F)c1` [drawing 190], the figures for the EC50 in test [1] (setting [9]) and in test [3] (setting [10]) were greater than 10000 nM and 22 ± 5 nM, respectively.
With `C[C@@H]1CC(=O)NN=C1c1ccc(C2CCCCC2)cc1` [drawing 196], the results for the EC50 in test [1] (setting [9]) and in test [3] (setting [10]) were greater than 10000 nM and 7.7 ± 1.3 nM, respectively.
`C[C@@H]1CC(=O)NN=C1c1ccc(-c2cncnc2)cc1` [drawing 197]: the figures for the EC50 in test [1] (setting [9]) and in test [3] (setting [10]) were greater than 10000 nM and 13 ± 2 nM, respectively.
`Cc1cc(=O)[nH]nc1-c1ccc(N)cc1` [drawing 199]: the EC50 in test [1] (setting [9]) is greater than 10000 nM; in test [3] (setting [10]), greater than 1000 nM.
For `CCN(CC)c1ccc(-c2n[nH]c(=O)cc2C)cc1` [drawing 200], the figures for the EC50 in test [1] (setting [9]) and in test [3] (setting [10]) were greater than 10000 nM and greater than 1000 nM, respectively.
On to `CCN(CC)c1ccc(C2=NNC(=O)CC2C)cc1[N+](=O)[O-]` (stereo not shown) [drawing 215], for which the EC50 in test [5] was 12 ± 1.3 nM; in test [4] (NCI-H2122, Example 18, Mean ± SD (n = 3), read-out: Potency (EC50 nM) H2122), 13.7 ± 2.8 nM.
For `CCN(CC)c1ccc(C2=NNC(=O)CC2C)cc1[N+](=O)[O-]` (stereo not shown) [drawing 226], the EC50 in test [1] (setting [6]) was greater than 10000 nM; in test [3] (setting [7]) it was 4 nM; in test [4] (setting [8]), 12 nM; in test [2] it was 12 nM.
As to `CN/C(=N\c1ccc(C2=NNC(=O)CC2C)cc1)NC#N` (stereo not shown) [drawing 237], the EC50 in test [1] (setting [6]) and in test [2] was greater than 10000 nM throughout.

In general, EC50 refers to the concentration needed to bring the measured effect to its halfway point.
